# Assay results from patent publication US8129404B2, “Compounds and uses thereof” (Plexxikon Inc., priority 2009, dated 2012).
# Where two headings read alike, the source gives them in different places.
# Legend:
# B-Raf = target: T1, B-Raf (Homo sapiens, UniProt P15056); assay: Raf kinase biochemical assay (biotin-MEK1 phosphorylation, AlphaScreen), B-Raf; conditions: 100 μM ATP, biotin-MEK1 substrate
# T1 construct: purchased Upstate Biotechnology
# Procedure: (§1) Assays for biochemical and cell based activity are known in the art, for example, as described in PCT publication WO 2007/002433, the disclosure of which is hereby incorporated by reference as it relates to such assays. For example, the biochemical activity IC50 values are determined with respect to inhibition of B-Raf kinase activity, c-Raf-1 kinase activity, or B-Raf V600E kinase activity, where inhibition of phosphorylation of a peptide substrate is measured as a function of compound concentration. Compounds to be tested are diluted in dimethyl sulfoxide to a concentration of 0.1 mM. These are serially diluted 15 μL into 30 μL of dimethyl sulfoxide seven times in 96 well plates for a total of 8 dilution points, and for each dilution point 1 μL is added to a well of an assay plate. Plates are prepared such that each well in a 384 well plate contains 1 μL of compound in 10 μL volume with 0.1 ng Raf enzyme (i.e. any of B-Raf, c-Raf-1 or B-Raf V600E, Upstate Biotechnology or prepared by methods known to one of skill in the art), 50 mM HEPES, pH 7.0, 50 mM NaCl, 2 mM MgCl2, 1 mM MnCl2, 0.01% Tween-20, 1 mM DTT, and 100 nM biotin-MEK1 as substrate. The reaction is started with addition of 10 μL of 200 μM ATP (i.e. final 100 μM ATP). […] The plates are incubated for 3 hours at room temperature and read on Envision reader (Perkin Elmer). […]
# c-Raf-1 = target: T2, c-Raf-1 (Homo sapiens, UniProt P04049); assay: Raf kinase biochemical assay (biotin-MEK1 phosphorylation, AlphaScreen), c-Raf-1; conditions: 100 μM ATP, biotin-MEK1 substrate
# T2 construct: purchased Upstate Biotechnology
# Procedure: as §1
# B-Raf mutant V600E = target: T3, B-Raf mutant V600E (Homo sapiens, UniProt P15056, V600E); assay: Raf kinase biochemical assay (biotin-MEK1 phosphorylation, AlphaScreen), B-Raf V600E; conditions: 100 μM ATP, biotin-MEK1 substrate
# T3 construct: purchased Upstate Biotechnology
# Procedure: as §1
# TrkA = TrkA (Homo sapiens, UniProt P04629); assay: Kinase biochemical assay, TrkA
# Src = Src (Homo sapiens, UniProt P12931); assay: Kinase biochemical assay, Src
# Btk = Btk (Homo sapiens, UniProt Q06187); assay: Kinase biochemical assay, Btk
# Fms = Fms (Homo sapiens, UniProt P07333); assay: Kinase biochemical assay, Fms
# Kdr = Kdr (Homo sapiens, UniProt P35968); assay: Kinase biochemical assay, Kdr
# [1] = Turbidity assay of relative solubility in aqueous buffers of varying pH; type: physicochemical
# Procedure: As an indication of relative solubility, the turbidity of compounds in aqueous solutions is assessed. To assess possible compound properties in different physiological compartments, such as stomach, intestine, and blood, a series of aqueous buffers with varying pH is used. Thus each compound is diluted into four different physiologically relevant buffers and solution turbidity is measured by spectrophotometry.
# Compounds are dissolved at a concentration of 25 mM in dimethyl sulfoxide, then serially diluted 1:1 into a 96 well plate, diluting 10 times in pure dimethyl sulfoxide, with the final well of each row a dimethyl sulfoxide blank. In an assay plate, 99 μL of appropriate buffer is added to each well, and 1 μL of each sample dilution is added to the buffer, achieving a range of final total concentrations in aqueous solutions having different pH. […] Control compounds pyrene, estriol and propranolol HCl are also assessed. Plates are spun and then mixed for 1 minute, and the absorbance is read using a Tecan Safire II to read wavelengths in the visible range (490, 535, and 650 nm) at four locations per well, reflecting the degree of turbidity present. The average optical density for each wavelength in each well is graphed vs. compound concentration, and the concentration at which the curve crosses a threshold O.D. of 0.01 for each wavelength is reported as the endpoint turbidity assay result. The average of the three wavelengths is used to compare turbidity of compounds. Compounds are considered to have low solubility if the threshold concentration is <31.3 μM, moderate solubility if the threshold concentration is 31.3 μM to 250 μM, and high solubility if the threshold concentration is >250 μM.
# CYP1A2 = target: T4, CYP1A2 (Homo sapiens, UniProt P05177); assay: CYP inhibition fluorescence assay, CYP1A2; type: in vitro ADME; conditions: substrate CEC; read-out: Cyp IC50 1A2
# T4 construct: purchased BD Biosciences
# T4 sequence (P05177 1-516): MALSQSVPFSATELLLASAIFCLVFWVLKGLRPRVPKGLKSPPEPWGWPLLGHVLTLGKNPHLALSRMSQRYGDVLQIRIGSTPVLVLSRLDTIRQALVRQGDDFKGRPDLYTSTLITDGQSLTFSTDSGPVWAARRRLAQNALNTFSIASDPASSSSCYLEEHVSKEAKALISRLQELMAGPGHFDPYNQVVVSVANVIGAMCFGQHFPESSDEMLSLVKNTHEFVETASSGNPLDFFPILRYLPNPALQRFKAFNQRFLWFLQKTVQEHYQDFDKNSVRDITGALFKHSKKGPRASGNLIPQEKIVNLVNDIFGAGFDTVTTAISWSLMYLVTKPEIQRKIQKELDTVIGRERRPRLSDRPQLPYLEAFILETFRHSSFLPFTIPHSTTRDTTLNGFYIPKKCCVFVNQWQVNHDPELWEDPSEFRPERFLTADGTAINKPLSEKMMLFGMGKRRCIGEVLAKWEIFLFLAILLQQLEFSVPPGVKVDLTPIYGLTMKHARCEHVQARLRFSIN
# Procedure: (§2) CYP (Cytochrome P450) enzymes are the major drug metabolizing enzymes present in the liver. The inhibition of CYP enzyme activity (IC50) for each of CYP1A2, CYP2C19, CYP2C9, CYP2D6, CYP3A4(BFC) and CYP3A4(BQ) is determined for compounds, where inhibition of metabolism of a known substrate leads to a decrease in the fluorescence of the metabolized product. The fluorescence of the product is monitored as a function of compound concentration. Compounds are dissolved in dimethyl sulfoxide to a concentration of 100 mM. These are diluted 1 μL into 82 μL of acetonitrile. An 11 μL aliquot of this solution is then added to 204 μL of cofactor mix (1.3% NADPH Regeneration system Solution A, 1.04% NADPH Regeneration system Solution B from BD Biosciences, 5% acetonitrile and 0.05% dimethyl sulfoxide). These are then serially diluted 160 μL to 160 μL co-factor mix for a total of 10 points. A 10 μL aliquot of this final mixture is dispensed into 384 well assay plates and incubated for 10 minutes at 37° C. Enzyme and substrate mix (10 μL; 0.5 pmol CYP1A2/5 μM CEC; 1.0 pmol CYP2C9/75 μM MFC; 0.5 pmol CYP2C19/25 μM CEC; 1.5 pmol CYP2D6/1.5 μM AMMC; 1.0 pmol CYP3A4/50 μM BFC; or 1.0 pmol CYP3A4/40 μM BQ) is added to these assay plates. […] (CYP1A2-15 min; CYP2C9-45 min; CYP2C19, 2D6 and 3A4-30 min) and read in a Tecan Safire 2 plate reader (CYP1A2, 2C19 and 3A4 409 ex/460 em; CYP2C9 and 2D6 409 ex/530 em). […]
# CYP2C19 = target: T5, CYP2C19 (Homo sapiens, UniProt P33261); assay: CYP inhibition fluorescence assay, CYP2C19; type: in vitro ADME; conditions: substrate CEC; read-out: Cyp IC50 2C19
# T5 construct: purchased BD Biosciences
# Procedure: as §2
# CYP2C9 = target: T6, CYP2C9 (Homo sapiens, UniProt P11712); assay: CYP inhibition fluorescence assay, CYP2C9; type: in vitro ADME; conditions: substrate MFC; read-out: Cyp IC50 2C9
# T6 construct: purchased BD Biosciences
# Procedure: as §2
# CYP2D6 = target: T7, CYP2D6 (Homo sapiens, UniProt P10635); assay: CYP inhibition fluorescence assay, CYP2D6; type: in vitro ADME; conditions: substrate AMMC; read-out: Cyp IC50 2D6
# T7 construct: purchased BD Biosciences
# Procedure: as §2
# CYP3A4(BFC) = target: T8, CYP3A4(BFC) (Homo sapiens, UniProt P08684); assay: CYP inhibition fluorescence assay, CYP3A4 with BFC substrate; type: in vitro ADME; conditions: read-out: Cyp IC50 3A4(BFC)
# T8 construct: purchased BD Biosciences
# Procedure: as §2
# CYP3A4(BQ) = target: T9, CYP3A4(BQ) (Homo sapiens, UniProt P08684); assay: CYP inhibition fluorescence assay, CYP3A4 with BQ substrate; type: in vitro ADME; conditions: read-out: Cyp IC50 3A4(BQ)
# T9 construct: purchased BD Biosciences
# Procedure: as §2
# [2] = pKa of weakly basic and weakly acidic centers; type: physicochemical; conditions: approximate
# Kit = Kit (Homo sapiens, UniProt P10721); assay: Kinase biochemical assay, Kit
# Hgk = Hgk (Homo sapiens, UniProt O95819); assay: Kinase biochemical assay, Hgk
# [3] = pH 1.4 (Simulated Gastric Fluid)
# [4] = pH 4.5 (Simulated Intestinal fluid)
# [5] = pH 6.8 (Simulated Intestinal fluid)
# [6] = read-out: pKa of N-7 of the pyrrolo[2,3-b]pyridine portion (weakly basic)
# [7] = read-out: pKa of the sulfonamide nitrogen (weakly acidic)
# T8 sequence (P08684 whole entry): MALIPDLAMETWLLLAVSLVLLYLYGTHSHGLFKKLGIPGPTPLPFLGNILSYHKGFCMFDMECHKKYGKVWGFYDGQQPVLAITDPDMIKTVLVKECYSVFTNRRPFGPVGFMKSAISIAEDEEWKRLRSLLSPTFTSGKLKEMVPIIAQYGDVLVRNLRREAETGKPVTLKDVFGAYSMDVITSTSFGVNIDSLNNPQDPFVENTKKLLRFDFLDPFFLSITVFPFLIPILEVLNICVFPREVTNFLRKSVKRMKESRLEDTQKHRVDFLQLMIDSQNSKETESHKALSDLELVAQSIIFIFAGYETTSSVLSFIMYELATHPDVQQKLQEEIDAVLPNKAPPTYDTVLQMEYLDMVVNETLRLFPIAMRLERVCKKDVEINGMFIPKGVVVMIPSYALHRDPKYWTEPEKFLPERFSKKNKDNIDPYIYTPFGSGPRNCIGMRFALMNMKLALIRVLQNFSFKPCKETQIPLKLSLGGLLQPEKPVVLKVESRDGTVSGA
# T9 sequence (P08684 whole entry): as above
# Sequence of Btk (Q06187 whole entry, species assumed): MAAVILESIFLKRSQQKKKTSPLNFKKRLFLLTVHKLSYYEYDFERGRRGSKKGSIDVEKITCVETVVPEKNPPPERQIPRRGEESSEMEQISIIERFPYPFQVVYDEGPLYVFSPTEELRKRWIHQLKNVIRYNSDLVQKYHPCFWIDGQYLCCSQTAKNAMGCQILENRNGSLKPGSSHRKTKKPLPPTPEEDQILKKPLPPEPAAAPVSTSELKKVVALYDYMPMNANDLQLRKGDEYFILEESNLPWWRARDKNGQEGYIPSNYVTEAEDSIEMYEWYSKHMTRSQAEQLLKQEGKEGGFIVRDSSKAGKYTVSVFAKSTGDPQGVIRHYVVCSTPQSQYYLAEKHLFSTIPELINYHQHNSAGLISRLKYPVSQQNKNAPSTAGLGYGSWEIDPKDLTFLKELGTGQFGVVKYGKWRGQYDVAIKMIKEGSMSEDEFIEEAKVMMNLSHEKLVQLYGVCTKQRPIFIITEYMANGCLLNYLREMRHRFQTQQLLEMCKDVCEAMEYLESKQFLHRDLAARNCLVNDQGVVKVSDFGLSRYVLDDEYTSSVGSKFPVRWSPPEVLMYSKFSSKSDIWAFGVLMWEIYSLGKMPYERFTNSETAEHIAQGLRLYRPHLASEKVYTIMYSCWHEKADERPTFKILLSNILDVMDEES
# T5 sequence (P33261 whole entry): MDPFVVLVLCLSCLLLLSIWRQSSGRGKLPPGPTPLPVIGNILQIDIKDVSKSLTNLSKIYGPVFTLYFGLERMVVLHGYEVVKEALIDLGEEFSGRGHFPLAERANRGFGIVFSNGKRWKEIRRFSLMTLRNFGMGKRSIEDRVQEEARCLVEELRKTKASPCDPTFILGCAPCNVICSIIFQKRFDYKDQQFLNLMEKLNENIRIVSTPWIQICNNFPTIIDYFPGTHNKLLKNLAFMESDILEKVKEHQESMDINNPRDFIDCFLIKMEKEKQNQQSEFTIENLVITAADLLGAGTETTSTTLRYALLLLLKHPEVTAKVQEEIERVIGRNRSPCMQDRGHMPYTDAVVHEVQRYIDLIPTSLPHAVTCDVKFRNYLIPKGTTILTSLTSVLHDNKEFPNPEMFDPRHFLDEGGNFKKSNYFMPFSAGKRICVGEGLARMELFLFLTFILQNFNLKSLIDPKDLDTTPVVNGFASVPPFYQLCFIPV
# T3 sequence (P15056 whole entry V600E): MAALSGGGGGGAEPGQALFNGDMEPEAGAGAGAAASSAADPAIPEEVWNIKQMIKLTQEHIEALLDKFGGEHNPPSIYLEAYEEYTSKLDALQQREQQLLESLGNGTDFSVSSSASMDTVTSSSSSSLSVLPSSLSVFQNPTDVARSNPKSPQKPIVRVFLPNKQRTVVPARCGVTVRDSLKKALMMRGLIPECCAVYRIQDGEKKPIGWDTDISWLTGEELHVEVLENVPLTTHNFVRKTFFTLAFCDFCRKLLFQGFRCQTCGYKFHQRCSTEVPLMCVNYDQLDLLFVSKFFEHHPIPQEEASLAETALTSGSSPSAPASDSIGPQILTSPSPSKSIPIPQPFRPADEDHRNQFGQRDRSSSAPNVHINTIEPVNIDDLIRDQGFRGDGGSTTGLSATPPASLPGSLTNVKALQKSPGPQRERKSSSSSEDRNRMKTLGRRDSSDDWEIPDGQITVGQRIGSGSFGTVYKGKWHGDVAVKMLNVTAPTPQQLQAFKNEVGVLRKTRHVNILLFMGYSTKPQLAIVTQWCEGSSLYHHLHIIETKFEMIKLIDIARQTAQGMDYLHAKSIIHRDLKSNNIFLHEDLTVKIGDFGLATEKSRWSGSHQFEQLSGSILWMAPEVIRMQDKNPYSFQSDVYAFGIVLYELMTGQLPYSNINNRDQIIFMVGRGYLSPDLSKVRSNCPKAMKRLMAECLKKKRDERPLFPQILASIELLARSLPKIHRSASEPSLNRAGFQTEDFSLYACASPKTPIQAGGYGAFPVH
# T7 sequence (P10635 whole entry): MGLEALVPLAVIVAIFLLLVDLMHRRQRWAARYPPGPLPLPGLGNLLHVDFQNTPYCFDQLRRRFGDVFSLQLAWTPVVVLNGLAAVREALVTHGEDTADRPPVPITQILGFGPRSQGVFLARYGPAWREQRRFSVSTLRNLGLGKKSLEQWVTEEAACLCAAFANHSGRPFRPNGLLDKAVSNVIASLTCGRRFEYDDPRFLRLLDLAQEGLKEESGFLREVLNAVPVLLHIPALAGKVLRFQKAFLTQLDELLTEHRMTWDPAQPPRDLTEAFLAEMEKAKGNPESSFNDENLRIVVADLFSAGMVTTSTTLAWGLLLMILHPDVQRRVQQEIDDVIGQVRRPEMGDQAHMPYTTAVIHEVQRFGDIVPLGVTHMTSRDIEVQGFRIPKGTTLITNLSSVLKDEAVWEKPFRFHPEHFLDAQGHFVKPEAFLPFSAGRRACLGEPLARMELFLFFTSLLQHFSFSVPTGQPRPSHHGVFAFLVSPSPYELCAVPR
# Sequence of Kdr (P35968 20-1356, species assumed): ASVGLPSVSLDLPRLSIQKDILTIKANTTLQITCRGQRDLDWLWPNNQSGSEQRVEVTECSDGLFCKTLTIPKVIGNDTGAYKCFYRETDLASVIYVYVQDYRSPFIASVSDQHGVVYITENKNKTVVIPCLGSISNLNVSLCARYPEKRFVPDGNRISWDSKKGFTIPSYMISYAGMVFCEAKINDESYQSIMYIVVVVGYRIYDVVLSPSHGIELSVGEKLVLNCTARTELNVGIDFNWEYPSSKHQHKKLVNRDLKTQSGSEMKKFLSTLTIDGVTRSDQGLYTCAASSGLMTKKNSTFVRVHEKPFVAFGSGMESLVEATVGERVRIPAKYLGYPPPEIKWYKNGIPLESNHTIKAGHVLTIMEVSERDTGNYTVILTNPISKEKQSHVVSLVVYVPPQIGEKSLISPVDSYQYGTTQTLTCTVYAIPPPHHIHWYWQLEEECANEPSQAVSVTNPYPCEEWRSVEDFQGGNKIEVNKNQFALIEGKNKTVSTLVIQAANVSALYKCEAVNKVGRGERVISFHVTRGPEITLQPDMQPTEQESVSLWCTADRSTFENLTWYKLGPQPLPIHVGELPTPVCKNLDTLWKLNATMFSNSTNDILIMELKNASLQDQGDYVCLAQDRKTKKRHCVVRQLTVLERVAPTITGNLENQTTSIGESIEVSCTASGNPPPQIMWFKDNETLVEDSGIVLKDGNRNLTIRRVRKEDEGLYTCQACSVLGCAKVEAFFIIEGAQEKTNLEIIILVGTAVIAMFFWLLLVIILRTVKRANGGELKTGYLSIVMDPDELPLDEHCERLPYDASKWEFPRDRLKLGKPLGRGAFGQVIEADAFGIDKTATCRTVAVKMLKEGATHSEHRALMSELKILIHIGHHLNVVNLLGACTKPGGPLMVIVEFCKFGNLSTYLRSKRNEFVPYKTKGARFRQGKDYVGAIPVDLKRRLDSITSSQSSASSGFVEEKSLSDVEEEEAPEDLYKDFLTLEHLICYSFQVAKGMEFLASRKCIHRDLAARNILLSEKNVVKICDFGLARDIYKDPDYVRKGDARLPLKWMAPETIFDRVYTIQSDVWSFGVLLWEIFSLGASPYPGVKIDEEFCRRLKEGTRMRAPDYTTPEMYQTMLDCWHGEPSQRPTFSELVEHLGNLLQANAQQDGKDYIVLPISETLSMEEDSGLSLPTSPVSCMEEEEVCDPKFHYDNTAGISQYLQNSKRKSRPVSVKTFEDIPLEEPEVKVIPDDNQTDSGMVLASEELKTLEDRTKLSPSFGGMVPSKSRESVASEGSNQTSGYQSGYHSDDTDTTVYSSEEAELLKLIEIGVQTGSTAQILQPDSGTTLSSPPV
# Sequence of Src (P12931 whole entry, species assumed): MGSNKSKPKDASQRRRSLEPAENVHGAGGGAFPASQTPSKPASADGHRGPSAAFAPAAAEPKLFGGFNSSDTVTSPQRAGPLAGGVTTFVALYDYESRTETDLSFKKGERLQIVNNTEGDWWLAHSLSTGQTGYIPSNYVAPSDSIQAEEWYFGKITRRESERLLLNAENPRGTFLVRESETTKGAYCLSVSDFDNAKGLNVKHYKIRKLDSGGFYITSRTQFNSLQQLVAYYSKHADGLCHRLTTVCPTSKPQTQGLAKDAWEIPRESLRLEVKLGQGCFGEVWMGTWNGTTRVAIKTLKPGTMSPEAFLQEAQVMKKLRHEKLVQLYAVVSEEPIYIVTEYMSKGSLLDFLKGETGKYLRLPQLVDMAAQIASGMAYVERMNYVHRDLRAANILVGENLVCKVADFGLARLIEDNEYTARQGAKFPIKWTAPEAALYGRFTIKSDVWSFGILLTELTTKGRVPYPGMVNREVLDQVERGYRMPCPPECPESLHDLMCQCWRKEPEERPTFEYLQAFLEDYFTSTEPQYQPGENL
# T1 sequence (P15056 whole entry): as the sequence (P15056 whole entry V600E) above, with E600V counted along it
IC50 (B-Raf) [µM],IC50 (c-Raf-1) [µM],IC50 (B-Raf mutant V600E) [µM],IC50 (TrkA) [µM],IC50 (Src) [µM],IC50 (Btk) [µM],IC50 (Fms) [µM],IC50 (Kdr) [µM],IC50 (CYP1A2) [µM],IC50 (CYP2C19) [µM],IC50 (CYP2C9) [µM],IC50 (CYP2D6) [µM],IC50 (CYP3A4(BFC)) [µM],IC50 (CYP3A4(BQ)) [µM],"pKa [2, 6]","pKa [2, 7]",SMILES,"turbidity threshold (L, M, H) [1, 3]","turbidity threshold (L, M, H) [1, 4]","turbidity threshold (L, M, H) [1, 5]","turbidity threshold (L, M, H) ([1]; pH 7.4 (Hepes Buffer))",further results
< 0.1,< 0.1,< 1,> 10,~1,> 10,> 10,~1,> 10,> 10,< 5,> 10,5 to 10,> 10,4 to 5,~7,"C#Cc1ccnc2[nH]cc(C(=O)c3c(F)ccc(NS(=O)(=O)c4ccc(C(F)(F)F)cc4)c3F)c12 [Compound P-0002, N-[3-(4-ethynyl-1H-pyrrolo[2,3-b]pyridine-3-carbonyl)-2,4-difluoro-phenyl]-4-trifluoromethyl-benzenesulfonamide]",L (low solubility if the threshold concentration is <31.3 μM),L (low solubility if the threshold concentration is <31.3 μM),M (moderate solubility if the threshold concentration is 31.3 μM to 250 μM),M (moderate solubility if the threshold concentration is 31.3 μM to 250 μM),–
< 0.1,< 0.1,< 1,1 to 10,1 to 10,> 10,> 10,> 10,> 10,> 10,> 10,> 10,> 10,> 10,4 to 5,~7,"N#Cc1ccnc2[nH]cc(C(=O)c3c(F)ccc(NS(=O)(=O)c4ccc(C(F)(F)F)cc4)c3F)c12 [Compound P-0001, N-[3-(4-cyano-1H-pyrrolo[2,3-b]pyridine-3-carbonyl)-2,4-difluoro-phenyl]-4-trifluoromethyl-benzenesulfonamide]",L (low solubility if the threshold concentration is <31.3 μM),L (low solubility if the threshold concentration is <31.3 μM),L (low solubility if the threshold concentration is <31.3 μM),M (moderate solubility if the threshold concentration is 31.3 μM to 250 μM),IC50 (Kit): 1 to 10 µM; IC50 (Hgk): > 10 µM
